Each block holds one molecule with its values, some of them ahead of it. Activity calls are given as the source filed them. The calls are words filed in the database; no cut-off is given here. Where a SMILES comes first, the peptide text is derived from it.
Assays:
Papain [1] = target: T1, Papain (Carica papaya, UniProt P00784); test: Inhibitory activity against papain; Weak competitive inhibitor
T1 sequence (P00784 whole entry): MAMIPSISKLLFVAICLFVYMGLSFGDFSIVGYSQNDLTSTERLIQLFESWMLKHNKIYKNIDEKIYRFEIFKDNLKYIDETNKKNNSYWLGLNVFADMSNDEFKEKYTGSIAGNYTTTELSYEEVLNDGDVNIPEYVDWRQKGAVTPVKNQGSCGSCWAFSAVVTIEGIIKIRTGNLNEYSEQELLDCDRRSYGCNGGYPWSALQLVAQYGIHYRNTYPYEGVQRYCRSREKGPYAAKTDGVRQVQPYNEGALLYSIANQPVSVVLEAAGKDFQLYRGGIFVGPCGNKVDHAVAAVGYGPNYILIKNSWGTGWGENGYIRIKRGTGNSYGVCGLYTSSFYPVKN

Papain (Carica papaya) [2] = target: T2, Papain (Carica papaya) (UniProt P00784); test: Pseudo first order rate constant against papain
T2 sequence (whole entry): T1 sequence (P00784 whole entry)

Papain [3] = target: T1, Papain; test: Inhibitory activity against papain
[4] = Inhibition of hydrolysis of Z-Gly-NP by administration of the 1 uM compound; Markedly inhibited
[5] = Inhibition of hydrolysis of Z-Gly-NPby administration of the compound
Papain (Carica papaya) [6] = target: T2, Papain (Carica papaya); test: Inhibitory activity against papain; No detectab inactivation
[7] = substrate: O=C(O)CNC(=O)OCc1ccccc1; test: Papain-catalyzed hydrolysis was expressed as Km

Molecule: COC(=O)CCCNC(=O)C(Cc1ccccc1)NC(C)=O (stereo not drawn)
Ki (Papain [1]): > 5 mM

Molecule: COC(=O)/C=C/CNC(=O)C(Cc1ccccc1)NC(C)=O (stereo not drawn)
K2 (Papain (Carica papaya) [2]): 0.00182 s⁻¹
Ki (Papain [3]): 0.026 mM
inhibition [4]: Markedly inhibited

B1: Papain (Carica papaya), P00784 (protein)
chain: T1 sequence (P00784 whole entry)
Km [7]: 10.3 µM

Further lines, results first:

Ki [5]: 4.7 mM
Molecule: CC(=O)N[C@@H](Cc1ccccc1)C(=O)NCC(N)=O (Ac-Phe-Gly-NH2)

inhibition (Papain (Carica papaya) [6]): inactive
Molecule: COC(=O)/C=C/C(Cc1ccccc1)NC(C)=O (stereo not drawn)

Ki (Papain [1]): > 5 mM
Molecule: C=CCNC(=O)C(Cc1ccccc1)NC(C)=O (stereo not drawn)

From ChEMBL document CHEMBL1122661, “Vinylogous amino acid esters: a new class of inactivators for thiol proteases” (J Med Chem, 1984)
